Test results published in publication PMC3176149, “Application of Celluspots peptide arrays for the analysis of the binding specificity of epigenetic reading domains to modified histone tails” (BMC Biochemistry, 2011).
“Also recorded” adds a separate entry of the source.

Experiments:
[1] = test system: Dnmt3a PWWP domain (residues 279-420); test: Binding of GST-fused Dnmt3a PWWP domain to modified histone peptides on Celluspots peptide arrays; set-up: species or system murine; conditions: Dnmt3a PWWP GST fusion 50 nM, room temperature, 2 hours, interaction buffer pH 7.5, ECL, tested at least two times
Description: In the present study, the binding specificities of seven known reading domains were analyzed using Celluspots peptide arrays comprising 384 peptides from 8 different regions of the N-terminal histone tails, viz. H3 1-19, 7-26, 16-35 and 26-45, H4 1-19 and 11-30, H2A 1-19 and H2B 1-19. The arrays are commercially available from Active Motif and feature 59 post-translational modifications (most of them identified, some of them hypothetical) in many different combinations (Additional file 1). Binding of the GST fused reading domain proteins to peptide arrays was visualized using an anti-GST antibody, followed by a secondary anti-goat-HRP antibody and ECL detection system. The domains were selected to represent the different folds of reading domains and show a wide range of specificities. […] Each reading domain was tested at least two times on the peptide arrays to ensure that the results are reliable. […] The binding intensities for each tested reading domain were analyzed with the Array Analyze program, which calculates the average of the binding intensities to corresponding peptide spots in both copies of the array and prepares a graphical output - one scatter plot illustrating the binding intensities observed at corresponding spots in both copies of the array and a bar diagram showing the distribution of deviations of the binding intensities to the corresponding spots. […]

Dnmt3a PWWP domain = conditions: SPOT arrays and follow-up experiments; ref [19]; cited from earlier work
Description: These binding modules are about 50 amino acids long and contain two binding sites for zinc ions. The PHD finger of Rag2, an essential component of the Rag1/2 V(D)J recombinase, which mediates antigen-receptor gene assembly, interact ... || Another reading domain which was tested on the Celluspots peptide arrays is the PWWP domain of Dnmt3a. […] Since there is only one H3K36me3-modified peptide spot, the effect of enhancing or inhibiting secondary modifications could not be studied in this case. […] Since peptide arrays are screening tools, unexpected or novel results need to be confirmed by equilibrium peptide binding experiments using purified peptides. In our experience, such studies often confirmed results from peptide arrays. For example in the case of the Dnmt3a PWWP domain, binding ...

[2] = test system: 53BP1 tandem Tudor domain (residues 1490-1608); test: Binding of GST-fused 53BP1 tandem Tudor domain to modified histone peptides on Celluspots peptide arrays; set-up: species or system human; conditions: 53BP1 tandem Tudor GST fusion 1 μM, room temperature, 2 hours, interaction buffer pH 7.5, ECL, tested at least two times
Description: (§1) In the present study, the binding specificities of seven known reading domains were analyzed using Celluspots peptide arrays comprising 384 peptides from 8 different regions of the N-terminal histone tails, viz. H3 1-19, 7-26, 16-35 and 26-45, H4 1-19 and 11-30, H2A 1-19 and H2B 1-19. The arrays are commercially available from Active Motif and feature 59 post-translational modifications (most of them identified, some of them hypothetical) in many different combinations (Additional file 1). Binding of the GST fused reading domain proteins to peptide arrays was visualized using an anti-GST antibody, followed by a secondary anti-goat-HRP antibody and ECL detection system. […] In case of weak signals, the experiment was repeated with higher protein concentration. In case of an overexposed image, the protein concentration was reduced. For quality control, each glass slide contains two identical copies of the array. […] The sequences encoding human HP1ß full length (residues 1-185), the Chromo domain of human MPP8 (residues 58-112), the double Tudor domain of human JMJ[…] (residues 856-1047), the tandem Tudor domain of human 53BP1 (residues 1490-1608), the PHD finger of human Rag2 (residues 311-520) and the second Bromo domain of human BRD2 (residues 348-455) were amplified from cDNA derived from HEK293 cells and cloned as GST fusion proteins into the pGEX-6P-2 vector (GE Healthcare).

[3] = test system: 53BP1 tandem Tudor domain; conditions: ref [14],[15]; cited from earlier work
Source text: (§2) The Tudor domain folds into a ß-sandwich flanked by one α-helix.

[4] = test system: JMJD2A double Tudor domain (residues 856-1047); test: Binding of GST-fused JMJD2A double Tudor domain to modified histone peptides on Celluspots peptide arrays; set-up: species or system human; conditions: JMJD2A double Tudor GST fusion 10 nM, room temperature, 2 hours, interaction buffer pH 7.5, ECL, tested at least two times
Description: as §1

[5] = test system: JMJD2A double Tudor domain; conditions: ref [14],[17],[18]; cited from earlier work
Source text: as §2

Substance	binding to modified histone tail peptides (array signal) [1]	interaction with 53BP1 tandem Tudor domain (literature) [3]	further results
H3K36me2: H3K36me2 modified histone tail peptide on Celluspots array	weaker binding signal in comparison to H3K36me3		
H3K36me3: H3K36me3-modified peptide spot on Celluspots array (only one)	specifically bound		interaction with Dnmt3a PWWP domain (literature) (Dnmt3a PWWP domain): specific interaction; also recorded: could be verified by peptide binding, pull-down of native nucleosomes and functional DNA methylation experiments; also recorded: shown to read H3K36me3
H4K20me1: H4K20me1 modified histone tail peptide on Celluspots array		reported to interact	binding to modified histone tail peptides (array signal) [2]: not observed on the peptide array
H4K20me2: H4K20me2 modified histone tail peptide on Celluspots array		reported to interact; also recorded: shown to interact	binding to modified histone tail peptides (array signal) [4]: next best bound modification on the peptide array; binding to JMJD2A double Tudor domain (literature) [5]: interact preferentially; also recorded: reported to bind
